Experimental data reported in patent publication US20230133209A1, “CELL CLASSIFIER CIRCUITS AND METHODS OF USE THEREOF” (Eidgenössische Technische Hochschule Zürich, priority 2020, published 2023).

Tested on: HepG2-LC tumor-bearing mice
Experiment: Antitumor efficacy in orthotopic HepG2 xenograft tumor model (bioluminescence tumor load, score sheet)
Format: in vivo, mouse
Protocol: Accordingly, this tumor-targeting program was evaluated in a pilot experiment in the context of orthotopic xenograft tumor model employing HepG2 cells in NSG mice. For the purpose of tumor establishment and tracking, HepG2 cells were stably modified with a lentiviral vector encoding an mCitrine fluorescent protein and firefly luciferase gene, and sorted for homogenous mCitrine expression. The tumors were established by splenic injection of 1M HepG2-LC cells and subsequent spleen dissection.
To gauge antitumor efficacy in vivo, AAV-DJ-HCC.V1-HSV-TK was delivered to HepG2 tumor bearing mice in two consecutive injections, three days apart. The four experimental groups (n=2 in this pilot) included the AAV-DJ-HCC.V1-HSV-TK in combination with GCV regimen (treatment arm), the same vector alone without GCV, sham injection supplemented with GCV regimen, and a sham PBS injection and no GCV.
Next, DJ-pseudotyped AAV vectors harboring the circuit were delivered systemically to HepG2-LC tumor-bearing mice (FIG. 7A). […]
Xenograft mouse liver mouse model: All animal procedures were performed in accordance with the Swiss federal law and institutional guidelines of Eidgenössische Technische Hochschule (ETH) Zurich, and approved by the animal ethics committee of canton Basel-Stadt. […] The tumor growth in mice was monitored by bioluminescence imaging 2-3 times per week (PhotonIMAGER RT, Biospace Lab). […]

## Nc1nc(O)c2ncn(COC(CO)CO)c2n1 [GCV, ganciclovir]
n=4 per arm, sham injection + GCV
  tumor load over time (bioluminescence): exponential tumor load increase over time
pilot, n=2, sham injection supplemented with GCV regimen
  antitumor activity (tumor load, bioluminescence): absent
